Results: US8691865B2 (AbbVie Inc., priority 2008, dated 2014)

These molecules were tested against human Cav2.2 (Homo sapiens, UniProt Q00975) (assay: Assessment of calcium channel activity using FLIPR (Ca2+ influx in IMR32 cells)). Details: not given.
Assay type: cell-based
Procedure, shortened: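 Human neuroblastoma IMR32 cells were seeded at 1−1.2×10^5 cells/well and cultured 48 h at 37 °C before FLIPR calcium influx measurement. Percent inhibition at each concentration was calculated against the no-inhibitor signal, and IC50 came from sigmoidal dose-response fits.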

Chain of human Cav2.2 (Q00975 whole entry): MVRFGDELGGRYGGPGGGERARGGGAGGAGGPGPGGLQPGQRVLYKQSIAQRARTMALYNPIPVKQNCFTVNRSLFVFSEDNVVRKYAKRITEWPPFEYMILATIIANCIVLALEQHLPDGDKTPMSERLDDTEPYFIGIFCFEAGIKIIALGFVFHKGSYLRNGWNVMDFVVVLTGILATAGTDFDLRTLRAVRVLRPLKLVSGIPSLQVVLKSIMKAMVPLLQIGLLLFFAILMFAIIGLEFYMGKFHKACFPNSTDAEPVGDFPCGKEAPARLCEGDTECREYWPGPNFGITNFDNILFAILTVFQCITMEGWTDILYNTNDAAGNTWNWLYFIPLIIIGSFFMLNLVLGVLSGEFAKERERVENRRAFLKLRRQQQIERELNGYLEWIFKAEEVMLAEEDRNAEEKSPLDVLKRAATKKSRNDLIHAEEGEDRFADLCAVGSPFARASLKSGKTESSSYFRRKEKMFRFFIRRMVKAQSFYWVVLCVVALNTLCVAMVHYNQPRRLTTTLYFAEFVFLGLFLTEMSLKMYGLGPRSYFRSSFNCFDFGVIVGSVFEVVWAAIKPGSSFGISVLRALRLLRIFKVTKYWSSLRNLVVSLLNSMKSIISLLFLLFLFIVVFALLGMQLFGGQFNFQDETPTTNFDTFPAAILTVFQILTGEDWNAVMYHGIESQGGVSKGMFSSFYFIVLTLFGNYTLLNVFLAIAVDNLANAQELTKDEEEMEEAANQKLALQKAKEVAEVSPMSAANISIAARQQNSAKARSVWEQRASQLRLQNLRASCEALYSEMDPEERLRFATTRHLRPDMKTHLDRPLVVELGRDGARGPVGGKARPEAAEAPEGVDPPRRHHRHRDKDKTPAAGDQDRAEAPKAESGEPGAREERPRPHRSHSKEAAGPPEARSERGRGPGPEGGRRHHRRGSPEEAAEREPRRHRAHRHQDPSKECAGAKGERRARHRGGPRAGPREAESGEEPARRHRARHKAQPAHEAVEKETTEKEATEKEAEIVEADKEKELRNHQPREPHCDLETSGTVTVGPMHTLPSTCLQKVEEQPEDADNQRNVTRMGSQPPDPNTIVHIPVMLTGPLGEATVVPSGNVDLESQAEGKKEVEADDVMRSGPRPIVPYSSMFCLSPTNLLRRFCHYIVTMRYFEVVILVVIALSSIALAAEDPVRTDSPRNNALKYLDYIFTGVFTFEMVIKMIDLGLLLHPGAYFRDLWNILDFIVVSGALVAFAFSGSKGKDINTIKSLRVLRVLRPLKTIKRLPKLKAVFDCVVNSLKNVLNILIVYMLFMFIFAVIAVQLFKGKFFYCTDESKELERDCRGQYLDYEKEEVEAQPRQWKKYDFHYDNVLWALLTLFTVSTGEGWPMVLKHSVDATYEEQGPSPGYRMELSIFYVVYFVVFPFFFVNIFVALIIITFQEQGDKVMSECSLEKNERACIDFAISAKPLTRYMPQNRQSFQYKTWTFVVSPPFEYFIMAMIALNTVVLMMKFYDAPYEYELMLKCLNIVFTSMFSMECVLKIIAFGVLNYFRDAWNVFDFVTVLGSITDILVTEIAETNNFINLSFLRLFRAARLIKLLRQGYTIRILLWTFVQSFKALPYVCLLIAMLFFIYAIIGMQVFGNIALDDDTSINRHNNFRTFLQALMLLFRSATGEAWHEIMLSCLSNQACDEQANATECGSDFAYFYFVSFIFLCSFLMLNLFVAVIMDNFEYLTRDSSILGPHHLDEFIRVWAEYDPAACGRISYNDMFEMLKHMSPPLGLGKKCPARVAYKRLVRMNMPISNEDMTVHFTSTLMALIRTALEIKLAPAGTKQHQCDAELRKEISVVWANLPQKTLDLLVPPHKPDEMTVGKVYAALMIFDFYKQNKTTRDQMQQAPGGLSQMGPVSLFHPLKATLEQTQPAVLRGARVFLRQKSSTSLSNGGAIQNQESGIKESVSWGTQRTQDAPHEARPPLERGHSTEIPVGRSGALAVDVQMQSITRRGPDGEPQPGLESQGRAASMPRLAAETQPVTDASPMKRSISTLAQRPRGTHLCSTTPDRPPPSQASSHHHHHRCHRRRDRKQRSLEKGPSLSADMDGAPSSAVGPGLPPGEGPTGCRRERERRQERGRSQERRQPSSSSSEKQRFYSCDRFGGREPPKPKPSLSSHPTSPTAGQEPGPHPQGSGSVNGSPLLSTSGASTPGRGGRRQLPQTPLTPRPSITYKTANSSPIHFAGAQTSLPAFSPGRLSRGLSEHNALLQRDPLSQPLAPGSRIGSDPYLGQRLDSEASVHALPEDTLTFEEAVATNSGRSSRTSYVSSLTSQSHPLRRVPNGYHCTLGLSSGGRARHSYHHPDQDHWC
Chain of human Cav2.2 (P54289 25-956 partner limits assumed): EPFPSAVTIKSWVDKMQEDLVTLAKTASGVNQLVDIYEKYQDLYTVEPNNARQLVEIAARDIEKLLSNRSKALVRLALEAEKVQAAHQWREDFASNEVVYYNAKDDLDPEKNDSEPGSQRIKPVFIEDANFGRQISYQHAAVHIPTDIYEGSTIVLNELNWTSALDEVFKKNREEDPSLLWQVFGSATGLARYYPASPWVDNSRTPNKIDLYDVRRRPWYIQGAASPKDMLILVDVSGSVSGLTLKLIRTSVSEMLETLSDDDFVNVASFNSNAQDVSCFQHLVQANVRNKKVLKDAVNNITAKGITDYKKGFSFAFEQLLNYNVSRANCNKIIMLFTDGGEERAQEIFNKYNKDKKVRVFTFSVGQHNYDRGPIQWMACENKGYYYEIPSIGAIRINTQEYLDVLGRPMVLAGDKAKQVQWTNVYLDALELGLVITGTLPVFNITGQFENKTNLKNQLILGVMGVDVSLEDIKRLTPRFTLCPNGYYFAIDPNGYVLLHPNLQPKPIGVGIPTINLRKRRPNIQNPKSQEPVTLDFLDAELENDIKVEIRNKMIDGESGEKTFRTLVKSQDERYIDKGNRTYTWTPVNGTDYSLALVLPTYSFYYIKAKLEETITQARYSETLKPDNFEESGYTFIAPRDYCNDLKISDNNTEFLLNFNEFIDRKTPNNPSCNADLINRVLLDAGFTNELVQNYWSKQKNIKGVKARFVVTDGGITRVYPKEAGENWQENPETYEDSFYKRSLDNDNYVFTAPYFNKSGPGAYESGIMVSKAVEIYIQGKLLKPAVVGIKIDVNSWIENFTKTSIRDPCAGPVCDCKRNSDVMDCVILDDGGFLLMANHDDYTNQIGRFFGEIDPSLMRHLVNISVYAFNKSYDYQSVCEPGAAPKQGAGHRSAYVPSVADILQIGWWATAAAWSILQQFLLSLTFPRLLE
Chain of human Cav2.2 (P54289 957-1103 partner limits assumed): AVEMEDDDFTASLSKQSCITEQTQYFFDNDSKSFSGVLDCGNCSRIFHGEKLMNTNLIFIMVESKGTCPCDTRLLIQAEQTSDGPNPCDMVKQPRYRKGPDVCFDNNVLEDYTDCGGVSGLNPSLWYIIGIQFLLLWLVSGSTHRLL
Chain of human Cav2.2 (P54284 whole entry partner): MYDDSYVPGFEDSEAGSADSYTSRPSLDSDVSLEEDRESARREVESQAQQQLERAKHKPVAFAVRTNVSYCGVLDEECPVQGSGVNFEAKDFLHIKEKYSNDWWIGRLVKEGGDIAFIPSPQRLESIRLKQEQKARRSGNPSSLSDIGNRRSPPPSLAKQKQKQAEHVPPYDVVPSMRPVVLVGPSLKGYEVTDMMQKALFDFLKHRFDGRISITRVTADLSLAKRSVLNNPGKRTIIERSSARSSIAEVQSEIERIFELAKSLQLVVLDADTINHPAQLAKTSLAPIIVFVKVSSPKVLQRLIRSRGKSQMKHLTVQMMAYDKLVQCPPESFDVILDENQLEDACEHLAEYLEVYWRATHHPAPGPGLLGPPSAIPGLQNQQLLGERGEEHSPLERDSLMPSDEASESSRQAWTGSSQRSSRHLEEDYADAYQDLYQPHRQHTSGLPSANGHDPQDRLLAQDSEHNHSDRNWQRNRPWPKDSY

IC50 [µM] | Molecule
> 30 | CC[C@H](C)[C@H](NC)C(=O)N[C@@H]1CC[C@H]2CN(Cc3ccccc3)C[C@H]21 [Example 354, N^1-[(3aS,4R,6aR)-2-benzyloctahydrocyclopenta[c]pyrrol-4-yl]-N^2-methyl-L-isoleucinamide]
2.31 | O=C(N[C@H]1CC[C@H]2CN(Cc3cccc(C(F)(F)F)c3)C[C@H]21)C1CCCC1 (relative stereo) [Example 129, N-{(3aS*,4S*,6aR*)-2-[3-(trifluoromethyl)benzyl]octahydrocyclopenta[c]pyrrol-4-yl}cyclopentanecarboxamide]
4.63 | O=S(=O)(N[C@H]1CC[C@@H]2CN(c3cccc(C(F)(F)F)n3)C[C@@H]21)c1cccc(Cl)c1 [Example 704, 3-chloro-N-{(3aR,4S,6aS)-2-[6-(trifluoromethyl)pyridin-2-yl]octahydrocyclopenta[c]pyrrol-4-yl}benzenesulfonamide]
1.38 | CC(C)(C)NC(=O)N[C@H]1CC[C@@H]2CN(c3cccc(C(F)(F)F)n3)C[C@@H]21 [Example 711, 1-tert-butyl-3-{(3aR,4S,6aS)-2-[6-(trifluoromethyl)pyridin-2-yl]octahydrocyclopenta[c]pyrrol-4-yl}urea]
> 30 | CC(C)C[C@@H](C(=O)N[C@@H]1CC[C@H]2CN(S(C)(=O)=O)C[C@H]21)N1CCCC1 [Example 346, (2S)-4-methyl-N-[(3aS,4R,6aR)-2-(methylsulfonyl)octahydrocyclopenta[c]pyrrol-4-yl]-2-pyrrolidin-1-ylpentanamide]
3.57 | O=C(N[C@H]1CC[C@@H]2CN(c3cccc(Cl)c3)C[C@@H]21)[C@@H]1C[C@@H](F)CN1 [Example 643, (4R)-N-[(3aR,4S,6aS)-2-(3-chlorophenyl)octahydrocyclopenta[c]pyrrol-4-yl]-4-fluoro-L-prolinamide]
6.4 | N[C@H]1CC[C@@H]2CN(c3ccc(C(F)(F)F)cc3)C[C@@H]21 [Example 607, (3aR,4S,6aS)-2-[4-(trifluoromethyl)phenyl]octahydrocyclopenta[c]pyrrol-4-amine]
1.07 | CCCC(C(=O)NC1CCC2CN(Cc3ccc(F)cc3)CC21)N(C)C(=O)OC(C)(C)C (single isomer, unassigned) [Example 318]

The next lines start with the molecule.

Molecule | IC50 [µM]
O=C(N[C@H]1CC[C@@H]2CN(c3ccc(F)cc3)C[C@@H]21)[C@@H]1C[C@@H](F)CN1 [Example 641, (4R)-4-fluoro-N-[(3aR,4S,6aS)-2-(4-fluorophenyl)octahydrocyclopenta[c]pyrrol-4-yl]-L-prolinamide] | 26.2
N#Cc1ccccc1N1C[C@H]2CC[C@H](NC(=O)[C@@H]3C[C@@H](F)CN3)[C@H]2C1 [Example 651, (4R)-N-[(3aR,4S,6aS)-2-(2-cyanophenyl)octahydrocyclopenta[c]pyrrol-4-yl]-4-fluoro-L-prolinamide] | 14.9
CN[C@@H](CC(C)C)C(=O)N[C@H]1CC[C@@H]2CN(c3cccc(C(F)(F)F)n3)C[C@@H]21 [Example 590, N^2-methyl-N-{(3aR,4S,6aS)-2-[6-(trifluoromethyl)pyridin-2-yl]octahydrocyclopenta[c]pyrrol-4-yl}-L-leucinamide] | 0.45
CN[C@@H](CC(C)C)C(=O)N[C@H]1CC[C@@H]2CN(c3ccc(OC(F)(F)F)c(F)c3)C[C@@H]21 [Example 657, N-{(3aR,4S,6aS)-2-[3-fluoro-4-(trifluoromethoxy)phenyl]octahydrocyclopenta[c]pyrrol-4-yl}-N^2-methyl-L-leucinamide] | 1.8
O=C(CC(O)C(F)(F)F)N[C@H]1CC[C@@H]2CN(c3cccc(C(F)(F)F)n3)C[C@@H]21 (stereo partly drawn) [Example 586, 4,4,4-trifluoro-3-hydroxy-N-{(3aR,4S,6aS)-2-[6-(trifluoromethyl)pyridin-2-yl]octahydrocyclopenta[c]pyrrol-4-yl}butanamide] | 2.56
CCC[C@H](NCC(C)(C)C)C(=O)N[C@@H]1CC[C@H]2CN(S(=O)(=O)c3ccc(C(F)(F)F)cc3)C[C@H]21 [Example 260, N^2-neopentyl-N^1-((3aS,4R,6aR)-2-{[4-(trifluoromethyl)phenyl]sulfonyl}octahydrocyclopenta[c]pyrrol-4-yl)-L-norvalinamide] | 1.11
FC(F)(F)c1cccc(N2C[C@H]3CC[C@H](NCc4c[nH]cn4)[C@H]3C2)n1 [Example 677, (3aR,4S,6aS)-N-(1H-imidazol-4-ylmethyl)-2-[6-(trifluoromethyl)pyridin-2-yl]octahydrocyclopenta[c]pyrrol-4-amine] | 3.35
CN[C@H](C(=O)N[C@H]1CC[C@@H]2CN(c3cccc(C(F)(F)F)n3)C[C@@H]21)C(C)C [Example 764, N^2-methyl-N-{(3aR,4S,6aS)-2-[6-(trifluoromethyl)pyridin-2-yl]octahydrocyclopenta[c]pyrrol-4-yl}-L-valinamide] | 0.95
CN[C@@H](CC(C)C)C(=O)N[C@H]1CC[C@@H]2CN(c3ccc(F)cc3)C[C@@H]21 [Example 620, N-[(3aR,4S,6aS)-2-(4-fluorophenyl)octahydrocyclopenta[c]pyrrol-4-yl]-N^2-methyl-L-leucinamide] | 5.31
O=S(=O)(N[C@H]1CC[C@@H]2CN(c3cccc(C(F)(F)F)n3)C[C@@H]21)c1ccc(F)cc1 [Example 705, 4-fluoro-N-{(3aR,4S,6aS)-2-[6-(trifluoromethyl)pyridin-2-yl]octahydrocyclopenta[c]pyrrol-4-yl}benzenesulfonamide] | 3.82
Fc1ccc2[nH]c(CN[C@H]3CC[C@@H]4CN(c5ccc(OC(F)(F)F)cc5)C[C@@H]43)cc2c1 [Example 716, (3aR,4S,6aS)-N-[(5-fluoro-1H-indol-2-yl)methyl]-2-[4-(trifluoromethoxy)phenyl]octahydrocyclopenta[c]pyrrol-4-amine] | 8.15
CN[C@@H](CC(C)C)C(=O)N[C@@H]1CC[C@H]2CN(c3ccc(C(F)(F)F)cc3)C[C@H]21 [Example 740, N^2-methyl-N-{(3aS,4R,6aR)-2-[4-(trifluoromethyl)phenyl]octahydrocyclopenta[c]pyrrol-4-yl}-L-leucinamide] | 2
CC(C)C(C(=O)N[C@H]1CC[C@H]2CN(Cc3cccc(C(F)(F)F)c3)C[C@H]21)c1ccccc1 (relative stereo) [Example 122, 3-methyl-2-phenyl-N-{(3aS*,4S*,6aR*)-2-[3-(trifluoromethyl)benzyl]octahydrocyclopenta[c]pyrrol-4-yl}butanamide] | 0.36
CN[C@@H](CC(C)C)C(=O)N[C@H]1CC[C@@H]2CN(c3ccccc3OC(F)(F)F)C[C@@H]21 [Example 699, N^2-methyl-N-{(3aR,4S,6aS)-2-[2-(trifluoromethoxy)phenyl]octahydrocyclopenta[c]pyrrol-4-yl}-L-leucinamide] | 0.65

Same assay, conditions: read-out: IC50 (μM) or percent inhibition (* indicates 3 minute incubation, otherwise 60 minute); IC50; 60 minute pre-incubation with compound; IMR32 cells, 80 mM KCl depolarization

IC50 [µM] | Molecule
5.55 | CC(C)C[C@@H](N)C(=O)N[C@@H]1CC[C@@H]2CN(Cc3cccc(C(F)(F)F)c3)C[C@@H]21 (stereo in doubt) [Example 159, N^1-{(3aR*,4R*,6aS*)-2-[3-(trifluoromethyl)benzyl]octahydrocyclopenta[c]pyrrol-4-yl}-D-leucinamide]
6.13 | CC(C)(C)OC(=O)N1CCCC[C@H]1C(=O)N[C@@H]1CC[C@H]2CN(Cc3ccccc3)C[C@H]21 [Example 231, tert-butyl(2S)-2-({[(3aS,4R,6aR)-2-benzyloctahydrocyclopenta[c]pyrrol-4-yl]amino}carbonyl)piperidine-1-carboxylate]
> 30 | N^1-[(3aR,4S,6aS)-2-(4-fluorobenzyl)octahydrocyclopenta[c]pyrrol-4-yl]-N^2-methyl-L-norvalinamide [Example 378]
1.15 | O=C(CCC(c1ccc(F)cc1)c1ccc(F)cc1)N[C@H]1CC[C@H]2CN(Cc3cccc(C(F)(F)F)c3)C[C@H]21 (relative stereo) [Example 134, 4,4-bis(4-fluorophenyl)-N-{(3aS*,4S*,6aR*)-2-[3-(trifluoromethyl)benzyl]octahydrocyclopenta[c]pyrrol-4-yl}butanamide]

Second part, the molecule before the results:

Molecule | IC50 [µM]
O=C(N[C@H]1CC[C@H]2CN(Cc3ccncc3)C[C@H]21)C(C1CCCCC1)C1CCCCC1 [Example 72, 2,2-dicyclohexyl-N-[(3aS,4S,6aR)-2-(pyridin-4-ylmethyl)octahydrocyclopenta[c]pyrrol-4-yl]acetamide] | 3.23
N^2-isopropyl-4-methyl-N^1-{(3aR,4S,6aS)-2-[2-(methylsulfonyl)pyrimidin-5-yl]octahydrocyclopenta[c]pyrrol-4-yl}-L-leucinamide [Example 493] | 5.08
O=C(CC(c1ccc(F)cc1)c1ccc(F)cc1)N[C@H]1CC[C@H]2CN(Cc3cccc(C(F)(F)F)c3)C[C@H]21 (relative stereo) [Example 133, 3,3-bis(4-fluorophenyl)-N-{(3aS*,4S*,6aR*)-2-[3-(trifluoromethyl)benzyl]octahydrocyclopenta[c]pyrrol-4-yl}propanamide] | 0.69
CC(C)C(C(=O)N[C@H]1CC[C@@H]2CN(Cc3cccc(C(F)(F)F)c3)C[C@@H]21)c1ccccc1 (stereo partly drawn) [Example 88, 3-methyl-2-phenyl-N-{(3aR,4S,6aS)-2-[3-(trifluoromethyl)benzyl]octahydrocyclopenta[c]pyrrol-4-yl}butanamide] | 1.18
O=C(N[C@@H]1CC[C@H]2CN(S(=O)(=O)c3ccc(F)cc3)C[C@H]21)[C@@H]1CCCCN1 [Example 399, (2S)-N-{(3aS,4R,6aR)-2-[(4-fluorophenyl)sulfonyl]octahydrocyclopenta[c]pyrrol-4-yl}piperidine-2-carboxamide] | 15.3
O=S(=O)(N[C@@H]1CC[C@H]2CN(CCCCCC(c3ccc(F)cc3)c3ccc(F)cc3)C[C@H]21)c1cccc(C(F)(F)F)c1 [Example 191, N-{(3aS,4R,6aR)-2-[6,6-bis(4-fluorophenyl)hexyl]octahydrocyclopenta[c]pyrrol-4-yl}-3-(trifluoromethyl)benzenesulfonamide] | 0.51
